Among the data in PubChem BioAssay (NCI) are TGI and GI50 values, retold here.

Common to all, as to test: NCI anticancer screen, dose series, 48 h
Assay [1] has as its system MDA-MB-435.
For assay [2], the system named is M14 melanoma.
Assay [3] deals with HOP-92 NSCLC.
The subject of assay [4] is A498 renal.
Assay [5] has as its system MCF7 breast.
In assay [6] the test system is SK-OV-3 ovarian.
The subject of assay [7] is SK-MEL-5 melanoma.
The subject of assay [8] is BT-549 breast.
Assay [9] concerns IGROV1 ovarian.
Assay [10] has as its system MALME-3M melanoma.

Each structure is given as a SMILES string.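 Dose response: 5 concentrations. Exposure: 48 h. Format: 96-well plates. Endpoint: linear interpolation; highest concentration if not reached. Abbreviation: GI50, concentration required for 50% inhibition of growth. TGI is the concentration that stops growth completely.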 Bounds are passed on as bounds.

Turning to `Cn1c(=O)c2c(nc3n(Cc4ccccc4)c(=O)c(NCCCBr)cn23)n(C)c1=O`, the TGI in assay [1] was above 100 µM; in [2], above 100 µM; in assay [3], 58.5 µM; in [4], above 100 µM; in [5], above 100 µM; in assay [6], 97.3 µM. Also, the TGI in assay [7], in assay [8] and in assay [9] was above 100 µM throughout.
`COc1cccc2c1C(=O)c1c(O)c3c(c(O)c1C2=O)C[C@H](O)C[C@@H]3OC1CC(N)C(O)C(C)O1` (stereo partly drawn): the TGI is 8.05 µM in assay [1]; 17.6 µM in assay [3]; 4.5 µM in assay [4]; 21.2 µM in assay [5]; 14.8 µM in [6]; 2.22 µM in assay [7]. The TGI stood at 16 µM in assay [8], 12.4 µM in [9] and 3.57 µM in assay [10].
As to `CCn1c2ccc(C(=O)CCCN3CCCCC3)cc2c2cc(C(=O)CCCN3CCCCC3)ccc21`, the TGI in assay [1] is 3.3 µM; in assay [2], 3.6 µM; in assay [3], 30.3 µM; in assay [4], 10.3 µM; in assay [5], 4.94 µM; in assay [6], 13.4 µM. The TGI worked out at 2.92 µM in assay [7], 35 µM in assay [8], 8.73 µM in assay [9] and 18.5 µM in assay [10].
As to `c1ccc2c(c1)Sc1nccc3ccnc-2c13`, the TGI in [1], in assay [2], in assay [3], in [4], in assay [5] and in [6] was above 100 µM throughout. Besides, the TGI in assay [7], in assay [8], in [9] and in assay [10] was above 100 µM each time.
On to `CCCCC1=C(C(=O)N2CCOCC2)C2(OCCO2)C1=O`, for which the TGI in assay [1] was 50.8 µM; in assay [2], 43.8 µM; in assay [3] it was 66.4 µM; in [4] it was 62.1 µM; in [5] it was above 100 µM; in assay [6] it was above 100 µM. Besides, the TGI in assay [7] worked out at 33.2 µM; in assay [8], 78.8 µM; in assay [9], 37 µM; in assay [10], 57 µM.
As to `COc1ccccc1CN=C1Nc2ccncc2S(=O)(=O)N1c1ccccc1`, the TGI in assay [1], in assay [2], in assay [3], in assay [4], in assay [5] and in [6] was above 100 µM each time. In addition, the TGI in [7], in [8], in [9] and in assay [10] was above 100 µM in each case.
For the molecule `Cn1c(=O)c(-c2ccccc2)c(O)c2ccccc21`, the TGI in assay [1], in [3], in assay [4], in assay [5], in [7] and in assay [8] was above 100 µM in each case. Further, the TGI in assay [9] and in assay [10] was above 100 µM in each case.
With `CN(C)CCCNC(=O)c1cc(NC(=O)c2cc(NC(=O)CCCn3c4ccccc4c4ccccc43)cn2C)cn1C`, the TGI was above 61.7 µM in assay [1]; 12.3 µM in assay [2]; 40.1 µM in assay [3]; 44.3 µM in assay [4]; 39 µM in assay [5]; 30.8 µM in [6]. Also, the TGI in [7] is 19.6 µM; in assay [8], 46.7 µM; in assay [9] it was above 75.9 µM; in [10], above 49 µM.
Take `CC1C(NNc2ccccc2)Oc2cc3c(cc2C1c1ccccc1O)OCO3` (stereo not drawn): the TGI is 12.5 µM in [1]; 11.2 µM in assay [2]; 26.9 µM in assay [3]; 29.2 µM in [4]; 16.8 µM in assay [5]; 22.3 µM in assay [6]. Moreover, the TGI in assay [7] amounted to 24.1 µM; in [8], 27.4 µM; in assay [9], 19.3 µM; in assay [10], 10.4 µM.
As for `O=C(CCc1cc(O)cc(O)c1)NCCCNC(=O)CCc1cc(O)cc(O)c1`, the TGI in assay [1], in [2], in assay [3], in [4], in [5] and in assay [6] was above 100 µM throughout. Besides, the TGI in assay [7], in assay [8], in assay [9] and in assay [10] was above 100 µM each time.
Regarding `Nc1nc(Cl)cc(NCC2(O)CC2)n1`, the TGI in [1], in assay [3], in assay [4], in assay [5], in assay [6] and in assay [7] was above 100 µM each time. Moreover, the TGI in assay [8], in [9] and in assay [10] was above 100 µM each time.
As to `O=C1C=CC(=O)c2c(O)c(N3CCC[C@H]3CO)c(Cl)c(O)c21`, the TGI in assay [1] is 3.45 µM; in assay [2] it was 3.61 µM; in [3] it was 3.13 µM; in assay [4], above 10 µM; in [5], 3.66 µM; in [6], above 10 µM. In addition, the TGI in assay [7] is 3.11 µM; in [8], above 10 µM; in assay [9], above 7.96 µM; in assay [10], 3.21 µM.
`CC1CCC2(NC1)OC1CC3C4CC=C5CC(OC6OC(CO)C(OC7OC(C)C(O)C(O)C7O)C(O)C6OC6OC(C)C(O)C(O)C6O)CCC5(C)C4CCC3(C)C1C2C` (stereo not drawn): the TGI was found to be 5 µM in assay [1]; 6.39 µM in assay [2]; 21.1 µM in assay [3]; 11.8 µM in assay [4]; 4.88 µM in [5]; 19.5 µM in assay [6]. In addition, the TGI was determined as 33.9 µM in assay [7], 30.3 µM in assay [8], 15.5 µM in assay [9] and 9.23 µM in assay [10].
In the case of `CCOc1ccc(Nc2nc(N)nc(N)c2N)cc1`, the TGI in [1] is 65 µM; in assay [2], above 100 µM; in assay [3], above 100 µM; in assay [4] it was above 100 µM; in [5], 38.1 µM; in assay [6], above 100 µM. Further, the TGI in assay [7] is above 100 µM; in assay [8], 76.6 µM; in [9] it was 28.6 µM; in [10] it was 66.2 µM.
With `COc1cc(C(=O)Oc2ccc3c(c2)OCO3)cc(OC)c1OC`, the TGI in assay [1], in [2], in [3], in [4], in assay [5] and in assay [6] was above 100 µM throughout. The TGI in assay [7], in assay [8], in assay [9] and in assay [10] was above 100 µM throughout.
Consider `COC(=O)C1C(C(=O)OC)C2(OC(c3ccc(Cl)cc3)=CC2=O)C12OC(c1ccc(Cl)cc1)=CC2=O` (stereo not drawn), for which the TGI in assay [1] is above 100 µM; in [2], 42.8 µM; in assay [3], 37.6 µM; in [4] it was 76.1 µM; in [5], 64.6 µM; in assay [6] it was above 100 µM. For the same molecule, the TGI in assay [7] stood at 37.9 µM; in assay [8] it was 42.5 µM; in [9] it was 47.7 µM; in assay [10], 31.6 µM.
In the case of `S=C(N/N=C\C(=N/NC(=S)N1CCCCC1)c1ccccc1)N1CCCCC1`, the TGI is 3.68 µM in assay [1]; 3.61 µM in assay [2]; 3.88 µM in assay [3]; 3.18 µM in [4]; above 22.4 µM in [5]; 3.37 µM in [6]. Moreover, the TGI in assay [7] was found to be 3.32 µM; in [8], 3.57 µM; in assay [9] it was 3.45 µM; in [10], 3.57 µM.
For the molecule `O=[N+]([O-])c1ccc(NC(=S)N=Nc2c(O)[nH]c3ccc([N+](=O)[O-])cc23)cc1`, the TGI worked out at 38.7 µM in [1]; 41.9 µM in assay [2]; 35.2 µM in [3]; 32.7 µM in assay [4]; 84.1 µM in assay [5]; 41.8 µM in [6]. Moreover, the TGI in [7] amounted to 30.7 µM; in assay [8] it was 33.7 µM; in assay [9], 40 µM; in [10] it was 55.5 µM.
As for `COc1cc(-c2n/c(=C\c3c(O)[nH]c4ccc(Cl)cc34)cc3c2=Nc2ccccc2-3)ccc1F`, the GI50 in assay [1] was 2.16 µM; in assay [2], 1.89 µM; in assay [3] it was 1.73 µM; in [4], 3.16 µM; in assay [5], 1.25 µM; in [6], 2.29 µM. Further, the GI50 is 2.84 µM in [7], 2.06 µM in [8] and 2.07 µM in assay [9]. For the same molecule, the TGI stood at 4.65 µM in [1]; 3.48 µM in [2]; 3.82 µM in assay [3]; 15.2 µM in assay [4]; 3.26 µM in assay [5]; 5.3 µM in assay [6]. Also, the TGI in assay [7] came out at 10.8 µM; in assay [8], 3.84 µM; in assay [9] it was 5.17 µM.
As to `C[C@]12CCC(=O)[C@@H](CCC3=CC(=O)C=CC3=O)[C@@H]1CCC2=O`, the TGI in assay [1] is above 56.2 µM; in assay [2] it was 59.1 µM; in assay [3], above 100 µM; in assay [4], 39.6 µM; in [5], 37.2 µM; in [6], 63.9 µM. Besides, the TGI was found to be 20.7 µM in assay [7], 30.2 µM in assay [8] and 37.9 µM in assay [10].
For the molecule `CC1(C)OCC2OC3([C@@H]4OC(C)(C)O[C@H]4CO)OC(C)(C)OC3C2O1` (stereo partly drawn), the TGI in assay [1], in assay [2], in assay [3], in [4], in assay [5] and in assay [7] was above 100 µM in each case. Moreover, the TGI in assay [8] and in assay [9] was above 100 µM throughout.
Turning to `CS(=O)(=O)Nc1ccc2c(c1)N(S(C)(=O)=O)CC2CCl` (stereo not drawn), the TGI in assay [1], in assay [3], in assay [4], in [5], in assay [7] and in assay [8] was above 100 µM throughout. Also, the TGI in assay [9] and in [10] was above 100 µM in each case.
In the case of `Cc1cc2c(O)c(c1)CN(CC(=O)O)Cc1cc(C)cc(c1O)CN(CC(=O)O)Cc1cc(C)cc(c1O)CN(CC(=O)O)C2`, the TGI in [1], in [2], in assay [3], in assay [4], in [5] and in assay [6] was above 100 µM each time. Besides, the TGI in assay [7], in [8] and in assay [10] was above 100 µM in each case.
Take `N#C/C(C(=O)Nc1ccc(Cl)cc1)=C(/N)N1CCCC1`: the TGI in assay [1], in assay [2], in assay [3], in assay [4], in assay [5] and in [6] was above 100 µM in each case. For the same molecule, the TGI in [7], in assay [8] and in [9] was above 100 µM each time.
`Cc1[nH]c(=O)nc(NCCNCCO)c1C(=O)Nc1cccc2cc3ccccc3cc12`: the TGI was above 100 µM in [1]; above 100 µM in assay [2]; above 100 µM in assay [3]; above 100 µM in assay [4]; above 44 µM in assay [5]; above 100 µM in assay [7]. The TGI in [8], in assay [9] and in [10] was above 100 µM throughout.
Turning to `CCc1c(CNc2ccc(C(=O)NC(CC(=O)O)C(=O)O)cc2)ccc2nc(N)nc(N)c12` (stereo not drawn), the TGI in [1], in assay [2], in assay [3], in assay [5], in [6] and in assay [7] was above 1000 µM in each case. Moreover, the TGI in assay [8], in assay [9] and in [10] was above 1000 µM each time. Besides, the GI50 was above 1000 µM in [3], above 1000 µM in assay [6], 685 µM in assay [8] and 0.179 µM in assay [10].
